Legend:
Assay type in all cases: in vivo, mouse (BALB/cJRj, female)
[1] = system: ovariectomized BALB/c mice; experiment: Bone histomorphometry at the proximal tibia metaphysis; settings: 28 days, n=8; for BFR/BS / MAR / MS/BS / O.Th / OS/BS / N.Oc/B.Pm / Oc.S/BS: mean ± SD; for N.Oc/B.Pm / Oc.S/BS: p<0.001 vs. OVX+Vehicle
Description: (§1) Eight animals were randomly assigned to each group.
(§2) All animals received intraperitoneal administration of calcein green (10 mg/kg) 10 days and 2 days before sacrifice. Animals were housed in social groups and maintained in a 12 h:12 h light/dark cycle. They had free access to water and food. At necropsy, blood was collected by intracardiac aspiration into EDTA-treated tubes. Blood samples were centrifuged at 13,000 g for 15 min, aliquoted and stored at -80°C until plasma levels of exendin-4 (#EK-070-94, Phoenix pharmaceuticals, Burlingame, CA) and calcitonin (NBP3-06734, Bio-Techne Ltd, Abingdon, UK) were measured according to the manufacturer’s protocol. Plasma levels of the bone remodeling markers C-terminal telopeptide of collagen type I (CTx-I – RatLaps, Immunodiagnostic Systems Ltd, Boldon, UK) and N-terminal propeptide of type I collagen (P1NP - Rat/mouse P1NP, Immunodiagnostic Systems Ltd) were measured according to the manufacturers’ recommendation. Right femurs were wrapped in saline-soaked gauze and frozen at -20°C until use. Right tibiae were fixed in ethanol-based fixative and stored at 4°C until use. No specific inclusion or exclusion criteria were applied for animal selection. […] Additionally, correct implantation of the cerebral perfusion cannulas for icv-administered animals was verified at necropsy. All animals meeting these criteria were included in the study.
After microCT, right tibias were embedded undecalcified in polymethylmethacrylate (pMMA) at 4°C as previously reported ([32]). Seven micron-thick sections were made with a sledge microtome (Polycut S, Leica, Nanterre, France) prior to histoenzymatic detection of TRAP or Goldner trichrome staining. Dynamic histomorphometry was perfomed after counterstaining the bone matrix with calcein blue. All histomorphometrical parameters were measured with an in-house written application developed in Matlab R2023b (The Mathworks, Natick, CA, RRID:SCR_001622) according to guidelines and nomenclature proposed by the American Society for Bone and Mineral Research ([33]).

[2] = system: ovariectomized BALB/c mice; experiment: Bone ECM material evaluation by infrared microspectroscopy, midshaft femur; settings: 28 days, n=8
Description: as §1
Distal halves of the right femur were embedded undecalcified in pMMA after dehydration and infiltration. One micrometer-thick cross-section of the midshaft femur was cut with an ultramicrotome (Leica EM UC7, Leica microsystems, Nanterre, France) and deposited on BaF2 windows. Spectral analysis was performed, using a Bruker Hyperion 3000 infrared microscope coupled to a Bruker Vertex 70 spectrometer equipped with a single element mercury cadmium telluride (MCT) detector, between double calcein labels, as indicator of bone formation site. Mid-infrared spectra were recorded at a resolution of 4 cm^-1 (Spectral range 850–2000 cm^-1), with 32 accumulations in transmission mode. Background spectra were collected under identical conditions from the same BaF2 windows at the beginning and end of each experiment to ensure instrument stability. Post-processing was performed using Matlab R2023b (The Mathworks, Natick, CA) and included Mie scattering correction, pMMA subtraction, normalization and denoising (Savitzky-Golay algorithm, degree 2, span 9) prior to second derivative spectroscopy and curve fitting routines as previously reported in detail ([35]). A signal-to-noise ratio was computed in the region 1850-2000 cm^-1 to ensure proper denoising and quality of FTIR spectra for subsequent second derivative and curve fitting. Bone ECM material parameters were: Phosphate/Amide ratio (area ratio of v1,v3 phosphate and amide I); mineral crystallinity/maturity (XST, area ratio of subbands located at subbands ~1030 cm^-1 and ~1020 cm^-1), carbonate/phosphate ratio (area ratio of v2 carbonate and v1,v3 phosphate), and collagen maturity (intensity ratio of subbands located at 1660 cm^-1/1690 cm^-1) ([35]).

[3] = system: ovariectomized BALB/c mice; experiment: Plasma levels of calcitonin and bone remodeling markers (CTx-I, P1NP); settings: 28 days, n=8; for Calcitonin (plasma) / P1NP (plasma) / CTx-I (plasma): mean ± SD
Description: as §1, §2

[4] = icv Ex-4 70 pmol/day, vs OVX+vehicle, p<0.001
[5] = s.c. Ex-4 ~700 pmol/day, vs OVX+vehicle, p<0.001

## exendin-4 [Ex-4]
[1]; OVX + Ex-4, icv 70 pmol/day
  BFR/BS: 0.282 ± 0.065 μm^3/μm^2/day
  MAR: 2.17 ± 0.41 μm/day
  MS/BS: 12.9 ± 1.2%
  O.Th: 4.7 ± 0.7 μm
  OS/BS: 3.0 ± 2.2%
  N.Oc/B.Pm: 1.01 ± 0.27 ^*** mm^-1
  Oc.S/BS: 0.96 ± 0.27 %
[1]; OVX + Ex-4, s.c. ~700 pmol/day
  BFR/BS: 0.301 ± 0.059 μm^3/μm^2/day
  MAR: 2.30 ± 0.35 μm/day
  MS/BS: 13.0 ± 1.3%
  O.Th: 4.8 ± 0.8 μm
  OS/BS: 2.4 ± 1.0%
  N.Oc/B.Pm: 1.11 ± 0.26
  Oc.S/BS: 0.99 ± 0.28 %
[1]; [4]
  change in number of osteoclasts: -51%
  change in osteoclast surfaces: -45%
[1]; [5]
  change in number of osteoclasts and osteoclast surfaces: -41%
[2]; icv Ex-4 70 pmol/day, OVX, p<0.001
  increase in collagen maturity (1660/1690 cm^-1 subband ratio): 22%
[2]; s.c. Ex-4 ~700 pmol/day, OVX
  bone mineral (material level): not affected
[2]; s.c. Ex-4 ~700 pmol/day, vs OVX+vehicle, p=0.005
  increase in collagen maturity (1660/1690 cm^-1 subband ratio): 18%
[3]; OVX + Ex-4, icv 70 pmol/day
  Calcitonin (plasma): 47 ± 10 pg/mL
  P1NP (plasma): 28.0 ± 2.2 ng/mL
[3]; OVX + Ex-4, icv 70 pmol/day, p<0.01 vs. OVX+Vehicle
  CTx-I (plasma): 8.5 ± 1.7 ng/mL
[3]; OVX + Ex-4, s.c. ~700 pmol/day
  P1NP (plasma): 25.2 ± 4.0 ng/mL
[3]; OVX + Ex-4, s.c. ~700 pmol/day, p<0.001 vs. OVX+Vehicle
  Calcitonin (plasma): 111 ± 15 pg/mL
[3]; OVX + Ex-4, s.c. ~700 pmol/day, p<0.05 vs. OVX+Vehicle
  CTx-I (plasma): 11.7 ± 2.0 ng/mL
[3]; icv Ex-4 70 pmol/day, OVX
  circulating calcitonin levels: no effects on circulating calcitonin levels
[3]; icv Ex-4 70 pmol/day, vs OVX+vehicle, p=0.005
  change in plasma CTX-I: -38%
[3]; [5]
  increase in plasma circulating calcitonin: 152%
[3]; s.c. Ex-4 ~700 pmol/day, vs OVX+vehicle, p=0.012
  change in plasma CTX-I: -20%

Reference: publication PMC7618104, “The GLP-1 analogue, exendin-4, improves bone material properties and strength through a central relay in ovariectomized mice” (American journal of physiology. Endocrinology and metabolism, 2025)
